Measured values from patent US6573382B2, “Polymorphic forms of 6-[4-(1-cyclohexyl-1H-tetrazol-5-yl)butoxy]-3,4-dihydro-2(1H)-quinolinone” (priority 2001, dated 2003).

Legend:
[1] = aqueous solubility of the polymorphic form; type: physicochemical; conditions: Form A as prepared by the procedures of the '479 patent
[2] = bioavailability of the polymorphic form; conditions: Form A as prepared by the procedures of the '479 patent
[3] = stability of the crystalline form; type: physicochemical
[4] = DSC reheating of disturbed (scratched/stressed) sample: solid state phase transformation to Form A; type: physicochemical; conditions: DSC heating from 30° C. to approximately 200° C. at 10° C. per minute
Description: DSC data were generated using a Mettler-Toledo DSC 821^e (Columbus, Ohio) with a Julabo FT900 intercooler chiller (Julabo Company; Allentown, Pa.). In general, samples were analyzed in a vented, sealed aluminum pan. Because the endothermic peak may vary depending upon the rate of heating and the calibration and precision of the instrument, with the amount of peak variation dependent upon the heating rate used, all thermograms included herein were run under the same, consistent conditions: heating at 10° C. per minute under a nitrogen purge at 40 mL/minute. The resultant sample of Example 1A was disturbed with scratching, which caused the cilostazol sample to undergo a solid state phase transformation at approximately 119° C. followed by an endotherm of melt at approximately 160° C. (Form A) during heating by DSC from 30° C. to approximately 200° C. at 10° C. per minute. When the sample is stressed and reheated (as detailed in Example 2A), the sample undergoes a solid state phase transformation at approximately 147° C. followed by an endotherm of melt at about 160° C. (Form A) during heating by DSC from 30° C. to approximately 200° C. at 10° C. per minute. This disturbance of sample is believed to induce nucleation which preferentially causes Form A of cilostazol to form upon heating.

[5] = DSC thermogram of combined Forms A, B and C (melting points compared, solubility inferred); type: physicochemical; conditions: 10° C. per minute, nitrogen purge, FIG. 8
Description: DSC data were generated using a Mettler-Toledo DSC 821^e (Columbus, Ohio) with a Julabo FT900 intercooler chiller (Julabo Company; Allentown, Pa.). In general, samples were analyzed in a vented, sealed aluminum pan. Because the endothermic peak may vary depending upon the rate of heating and the calibration and precision of the instrument, with the amount of peak variation dependent upon the heating rate used, all thermograms included herein were run under the same, consistent conditions: heating at 10° C. per minute under a nitrogen purge at 40 mL/minute.
FIG. 8 illustrates a DSC thermogram for the combination of Form A, Form B and Form C having a second heating cycle with a maximum temperature of about 110° C. with a holding time of about 30 minutes. The peaks in the third heating cycle show a Form A to Form B to Form C peak area ratio of approximately 8:2:1, respectively, with the relative amount of Form A, Form B and Form C further variable on the heat of enthalpy of each polymorphic form.

| Structure (SMILES) | aqueous solubility [1] | bioavailability [2] | stability of the polymorphic form [3] | temperature of solid state phase transformation to Form A [4] | solubility relative to Form A, suggested by lower melting point in DSC [5] |
| --- | --- | --- | --- | --- | --- |
| O=C1CCc2cc(OCCCCc3nnnn3C3CCCCC3)ccc2N1 [Form A, 6-[4-(1-cyclohexyl-1H-tetrazol-5-yl)butoxy]-3,4-dihydro-2(1H)-quinolinone] | low aqueous solubility | low bioavailability |  |  |  |
| O=C1CCc2cc(OCCCCc3nnnn3C3CCCCC3)ccc2N1 [Form B, 6-[4-(1-cyclohexyl-1H-tetrazol-5-yl)butoxy]-3,4-dihydro-2(1H)-quinolinone] |  |  | stable | approximately 119 °C | more soluble than Form A |
| O=C1CCc2cc(OCCCCc3nnnn3C3CCCCC3)ccc2N1 [Form C, 6-[4-(1-cyclohexyl-1H-tetrazol-5-yl)butoxy]-3,4-dihydro-2(1H)-quinolinone] |  |  | stable | approximately 147 °C | more soluble than Form A |
